Results on twelve compounds are retold here after US9328138B2 (priority 2011, dated 2016).

The target in assay [1] is T1, HCV genotype 1b (BK) NS3 modified enzyme with a R155K mutation (Hepatitis C virus genotype 1b, UniProt P26663, R1181K).
T1 construct: HCV genotype 1b (BK) NS3 modified enzyme
The experiment in a line: HCV NS3 protease time-resolved fluorescence (TRF) assay, genotype 1b R155K. It is filed as biochemical. The conditions noted are these: Ki 1b R155K, genotype 1b (BK) NS3 R155K; single value. In a few lines:
(§1)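 Inhibitor titrations are mixed with NS3/NS4A in pH 7.5 HEPES buffer containing 10 mM DTT and 15% glycerol for 10 min before substrate (25 nM final) is added. After 6 h at room temperature, delayed fluorescence is read and fitted to a four-parameter curve for IC50.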

The target in assay [2] is HCV NS3 protease genotype 3a (3A-1) (Hepatitis C virus genotype 3a, UniProt Q81258). The experiment in a line: HCV NS3 protease time-resolved fluorescence (TRF) assay, genotype 3a. The class given is biochemical. The conditions noted are these: Ki 3a. In a few lines: as §1

Consider `C=C[C@@H]1C[C@]1(NC(=O)[C@@H]1C[C@@H]2CN1C(=O)[C@H](C(C)(C)C)NC(=O)O[C@@H]1C[C@H]1CCCCCc1c(nc3ccccc3c1OCCCN1CC(C#N)C1)O2)C(=O)NS(=O)(=O)C1(C)CC1` [Example 184, (1aR,5S,8S,10R,22aR)-5-tert-butyl-17-[3-(3-cyanoazetidin-1-yl)propoxy]-N-[(1R,2S)-2-ethenyl-1-{[(1-methylcyclopropyl)sulfonyl]carbamoyl}cyclopropyl]-3,6-dioxo-1,1a,3,4,5,6,9,10, 18,19,20,21,22,22a-tetradecahydro-8H-7,10-methanocyclopropa[18,19][1,10,3,6] dioxadiazacyclononadecino[11,12-b] quinoline-8-carboxamide], for which the figures for the inhibition constant (Ki) in assay [1] and in assay [2] were 0.057 nM and 1.1 nM, respectively.
The corresponding values for `C=C[C@@H]1C[C@]1(NC(=O)[C@@H]1C[C@@H]2CN1C(=O)[C@H](C(C)(C)C)NC(=O)O[C@@H]1C[C@H]1CCCCCc1c(nc3ccccc3c1OCCCNC(C)C)O2)C(=O)NS(=O)(=O)C1(C)CC1` [Example 185, (1aR,5S,8S,10R,22aR)-5-tert-butyl-N-[(1R,2S)-2-ethenyl-1-{[(1-methylcyclopropyl)sulfonyl]carbamoyl}cyclopropyl]-3,6-dioxo-17-[3-(propan-2-ylamino)propoxy]-1,1a,3,4,5,6,9,10,18,19,20,21,22,22a-tetradecahydro-8H-7,10-methanocyclopropa[18,19][1,10,3,6] dioxadiazacyclononadecino[11,12-b] quinoline-8-carboxamide] are 0.032 nM and 0.36 nM.
The corresponding values for `C=C[C@@H]1C[C@]1(NC(=O)[C@@H]1C[C@@H]2CN1C(=O)[C@H](C(C)(C)C)NC(=O)O[C@@H]1C[C@H]1CCCCCc1c(nc3ccccc3c1OCCCN(CCOC)CCOC)O2)C(=O)NS(=O)(=O)C1(C)CC1` [Example 186, (1aR,5S,8S,10R,22aR)-17-{3-[bis(2-methoxyethyl)amino]propoxy}-5-tert-butyl-N-[(1R,2S)-2-ethenyl-1-{[(1-methylcyclopropyl)sulfonyl]carbamoyl}cyclopropyl]-3,6-dioxo-1,1a,3,4,5,6,9,10, 18,19,20,21,22,22a-tetradecahydro-8H-7,10-methanocyclopropa[18,19][1,10,3,6] dioxadiazacyclononadecino[11,12-b] quinoline-8-carboxamide] are 0.078 nM and 1.9 nM.
The corresponding values for `C=C[C@@H]1C[C@]1(NC(=O)[C@@H]1C[C@@H]2CN1C(=O)[C@H](C(C)(C)C)NC(=O)O[C@@H]1C[C@H]1CCCCCc1c(nc3ccccc3c1OCCCN(CCO)Cc1ccccc1)O2)C(=O)NS(=O)(=O)C1(C)CC1` [Example 187, (1aR,5S,8S,10R,22aR)-17-{3-[benzyl(2-hydroxyethyl)amino]propoxy}-5-tert-butyl-N-[(1R,2S)-2-ethenyl-1-{[(1-methylcyclopropyl)sulfonyl]carbamoyl}cyclopropyl]-3,6-dioxo-1,1a, 3,4,5,6,9,10,18,19,20,21,22,22a-tetradecahydro-8H-7,10-methanocyclopropa[18,19][1,10,3,6] dioxadiazacyclononadecino[11,12-b] quinoline-8-carboxamide] are 0.24 nM and 6.1 nM.
For the compound `C=C[C@@H]1C[C@]1(NC(=O)[C@@H]1C[C@@H]2CN1C(=O)[C@H](C(C)(C)C)NC(=O)O[C@@H]1C[C@H]1CCCCCc1c(nc3ccccc3c1OCCCN(CC(O)c1ccc(O)c(O)c1)C(C)C)O2)C(=O)NS(=O)(=O)C1(C)CC1` (stereo partly drawn) [Example 188, (1aR,5S,8S,10R,22aR)-5-tert-butyl-17-(3-{[2-(3,4-dihydroxyphenyl)-2-hydroxyethyl](propan-2-yl)amino}propoxy)-N-[(1R,2S)-2-ethenyl-1-{[(1-methylcyclopropyl)sulfonyl]carbamoyl}cyclopropyl]-3,6-dioxo-1,1a,3,4,5,6,9,10,18,19,20, 21,22,22a-tetradecahydro-8H-7,10-methanocyclopropa[18,19][1,10,3,6] dioxadiazacyclononadecino[11,12-b] quinoline-8-carboxamide], the inhibition constant Ki – broadly, the equilibrium dissociation constant of an inhibitor or competing ligand from its target – in assay [1] came out at 0.033 nM; in assay [2], 0.85 nM.
The corresponding values for `C=C[C@@H]1C[C@]1(NC(=O)[C@@H]1C[C@@H]2CN1C(=O)[C@H](C(C)(C)C)NC(=O)O[C@@H]1C[C@H]1CCCCCc1c(nc3ccccc3c1OCCCNCCc1cccc3ccccc13)O2)C(=O)NS(=O)(=O)C1(C)CC1` [Example 189, (1aR,5S,8S,10R,22aR)-5-tert-butyl-N-[(1R,2S)-2-ethenyl-1-{[(1-methylcyclopropyl)sulfonyl]carbamoyl}cyclopropyl]-17-(3-{[2-(naphthalen-1-yl)ethyl]amino}propoxy)-3,6-dioxo-1,1a,3,4,5,6,9,10,18,19,20, 21,22,22a-tetradecahydro-8H-7,10-methanocyclopropa[18,19][1,10,3,6] dioxadiazacyclononadecino[11,12-b] quinoline-8-carboxamide] are 0.081 nM and 3.4 nM.
The corresponding values for `C=C[C@@H]1C[C@]1(NC(=O)[C@@H]1C[C@@H]2CN1C(=O)[C@H](C(C)(C)C)NC(=O)O[C@@H]1C[C@H]1CCCCCc1c(nc3ccccc3c1OCCCN(C)C(C)C(O)c1ccccc1)O2)C(=O)NS(=O)(=O)C1(C)CC1` (stereo partly drawn) [Example 190, (1aR,5S,8S,10R,22aR)-5-tert-butyl-N-[(1R,2S)-2-ethenyl-1-{[(1-methylcyclopropyl)sulfonyl]carbamoyl}cyclopropyl]-17-{3-[(1-hydroxy-1-phenylpropan-2-yl)(methyl)amino]propoxy}-3,6-dioxo-1,1a,3,4,5,6,9,10,18,19,20,21,22,22a-tetradecahydro-8H-7,10-methanocyclopropa[18,19][1,10,3,6] dioxadiazacyclononadecino[11,12-b] quinoline-8-carboxamide] are 0.074 nM and 1.5 nM.
The corresponding values for `C=C[C@@H]1C[C@]1(NC(=O)[C@@H]1C[C@@H]2CN1C(=O)[C@H](C(C)(C)C)NC(=O)O[C@@H]1C[C@H]1CCCCCc1c(nc3ccccc3c1OCCCN(C)Cc1nc3cc(C)ccc3[nH]1)O2)C(=O)NS(=O)(=O)C1(C)CC1` [Example 191, (1aR,5S,8S,10R,22aR)-5-tert-butyl-N-[(1R,2S)-2-ethenyl-1-{[(1-methylcyclopropyl)sulfonyl]carbamoyl}cyclopropyl]-17-(3-{methyl[(5-methyl-1H-benzimidazol-2-yl)methyl]amino}propoxy)-3,6-dioxo-1,1a,3,4,5,6,9,10,18,19, 20,21,22,22a-tetradecahydro-8H-7,10-methano cyclopropa[18,19][1,10,3,6] dioxadiazacyclononadecino[11,12-b] quinoline-8-carboxamide] are 0.16 nM and 1.5 nM.
Consider `C=C[C@@H]1C[C@]1(NC(=O)[C@@H]1C[C@@H]2CN1C(=O)[C@H](C(C)(C)C)NC(=O)O[C@@H]1C[C@H]1CCCCCc1c(nc3ccccc3c1OCCCN(CC)CCc1nc3ccccc3[nH]1)O2)C(=O)NS(=O)(=O)C1(C)CC1` [Example 192, (1aR,5S,8S,10R,22aR)-17-(3-{[2-(1H-benzimidazol-2-yl)ethyl](ethyl)amino}propoxy)-5-tert-butyl-N-[(1R,2S)-2-ethenyl-1-{[(1-methylcyclopropyl)sulfonyl]carbamoyl}cyclopropyl]-3,6-dioxo-1,1a,3,4,5,6,9,10,18,19,20,21, 22,22a-tetradecahydro-8H-7,10-methanocyclopropa[18,19][1,10,3,6] dioxadiazacyclononadecino[11,12-b] quinoline-8-carboxamide], for which the inhibitory constant (Ki) was found to be 0.1 nM in assay [1] and 0.71 nM in assay [2].
On to `C=C[C@@H]1C[C@]1(NC(=O)[C@@H]1C[C@@H]2CN1C(=O)[C@H](C(C)(C)C)NC(=O)O[C@@H]1C[C@H]1CCCCCc1c(nc3ccccc3c1OCCCN1CC(O)(c3ccccc3)C1)O2)C(=O)NS(=O)(=O)C1(C)CC1` [Example 193, (1aR,5S,8S,10R,22aR)-5-tert-butyl-N-[(1R,2S)-2-ethenyl-1-{[(1-methylcyclopropyl)sulfonyl]carbamoyl}cyclopropyl]-17-[3-(3-hydroxy-3-phenylazetidin-1-yl)propoxy]-3,6-dioxo-1,1a,3,4,5,6,9,10,18,19,20, 21,22,22a-tetradeca hydro-8H-7,10-methanocyclopropa[18,19][1,10,3,6] dioxadiazacyclononadecino[11,12-b] quinoline-8-carboxamide], for which the inhibition constant (Ki) came out at 0.16 nM in assay [1] and 1.5 nM in assay [2].
The corresponding values for `C=C[C@@H]1C[C@]1(NC(=O)[C@@H]1C[C@@H]2CN1C(=O)[C@H](C(C)(C)C)NC(=O)O[C@@H]1C[C@H]1CCCCCc1c(nc3ccccc3c1OCCCN1CC3(COC3)C1)O2)C(=O)NS(=O)(=O)C1(C)CC1` [Example 194] are 0.032 nM and 0.38 nM.
The corresponding values for `C=C[C@@H]1C[C@]1(NC(=O)[C@@H]1C[C@@H]2CN1C(=O)[C@H](C(C)(C)C)NC(=O)O[C@@H]1C[C@H]1CCCCCc1c(nc3ccccc3c1OCCCN(C)CC1CCC(=O)N1)O2)C(=O)NS(=O)(=O)C1(C)CC1` (stereo partly drawn) [Example 195, (1aR,5S,8S,10R,22aR)-5-tert-butyl-N-[(1R,2S)-2-ethenyl-1-{[(1-methylcyclopropyl)sulfonyl]carbamoyl}cyclopropyl]-17-(3-{methyl[(5-oxopyrrolidin-2-yl)methyl]amino}propoxy)-3,6-dioxo-1,1a,3,4,5,6,9,10,18, 19,20,21,22,22a-tetradecahydro-8H-7,10-methanocyclopropa[18,19][1,10,3,6] dioxadiazacyclononadecino[11,12-b] quinoline-8-carboxamide] are 0.049 nM and 0.66 nM.
